Assay [1] can be described thus: Quantitative sensory evaluation test, intensity of kokumi-imparting activity. As to conditions: for Kokumi intensity, aftertaste / Kokumi intensity, initial and middle taste: control 0, glutathione 3 points.
Experimental: The quantitative sensory evaluation test was performed as follows. […] When a sample is acidic when dissolved, the pH was adjusted with NaOH to pH 6.8 to 7.2 before use. Because it is known that glutathione can impart kokumi to a food, glutathione was used as a comparative control. The test was performed with n=3 based on the following sensory evaluation scores: control was given 0 points, glutathione addition was given 3 points. […] It should be noted that the term “initial and middle taste” is a collective term of the initial taste and middle taste.
The quantitative sensory evaluation test was performed as follows. […] When a sample is acidic when dissolved, the pH of the sample was adjusted with NaOH to pH 6.8 to 7.2 before use. The test was performed with n=5 based on the following sensory evaluation scores: control was given 0 point and glutathione addition was given 3 points.
The quantitative sensory evaluation test was performed as follows. […] As for a sample which is acidic when the sample is dissolved, pH of the sample was adjusted with NaOH to pH 6.8 to 7.2 before use. The test was performed with n=12 based on the following sensory evaluation scores: control: 0 point and glutathione addition: 3 points.
Assay [2] in a line: Quantitative sensory evaluation, improvement of body taste and bitterness of combined high-intensity sweeteners (Examples 2 and 4). Set-up: species or system human. The following applies: for Bitterness: control 0, <0 improved; for Bitterness / Body taste: n=12; for Body taste: control 0, >0 improved. How it is done:
The quantitative sensory evaluation test was performed as follows. As for a combination standard solution of each sweeteners, the following compounds were used. The following standard solutions have been adjusted so they each have almost the same degree of sweetness.
ii) APM (0.02 g/dl)+Ace-K (0.005 g/dl) [APM:Ace-K=8:2 as a ratio of degrees of sweetness]
iii) Sucralose (0.0058 g/dl)+Ace-K (0.0075 g/dl) [sucralose:Ace-K=7:3 as a ratio of degrees of sweetness]
iv) APM (0.0125 g/dl)+sucralose (0.0042 g/dl) [APM:sucralose=1:1 as a ratio of degrees of sweetness]
v) APM (0.0125 g/dl)+sucralose (0.0021 g/dl)+Ace-K (0.0063 g/dl) [APM:sucralose:Ace-K=2:1:1 as a ratio of degrees of sweetness]
To distilled water containing each of the sweeteners, γ-Glu-Cys-Gly (glutathione), γ-Glu-Val-Gly or γ-Glu-Abu-Gly was added and mixed at concentrations of 0.0001 to 1 g/dl, and then the degree of the improvement of the body taste and the improvement of the bitterness on the sweet taste was measured. The addition effect of the peptides on each of the high-intensity sweeteners was evaluated with reference to sucrose.
When a mixture is more acidic than the standard control solution, the pH of the mixture was adjusted with NaOH to achieve a range of pH±0.2 with respect to the pH of the standard solution before use.
The sensory evaluation for the improvement of the body taste was performed with n=12 on the basis of the following criteria: a control (obtained by adding distilled water only and without adding glutathione and/or the peptide) was defined as 0, and by using the control as a standard, the follow were defined: weak: −2 points; slightly weak: −1 point; slightly strong: 1 point, and strong: 2 points. A higher score than 0 means that the sample has a body taste-improving effect.
Alternatively, the sensory evaluation for the improvement of the bitterness was performed with n=12 on the basis of the following criteria: a control (obtained by adding distilled water only and without adding glutathione and/or the peptide) was defined as 0, and by using the control as a standard, the following were defined: weak: −2 points; slightly weak: −1 point; slightly strong: 1 point, and strong: 2 points. A lower score than 0 means that the sample improves the bitterness.
The quantitative sensory evaluation test was performed as follows. As for combination standard solution of each sweeteners, the following compound was used. The following standard solutions have been adjusted so they each have almost the same degree of sweetness.
To distilled water containing each sweetener mentioned above, γ-Glu-Val-Gly or cinacalcet was added and mixed at concentrations of 0.0001 to 1 g/dl, and then each degree of the improvement of the body taste and the improvement of the bitterness on the sweet taste was measured. The addition effect of the sample on each of the high intensity sweeteners was evaluated with reference to sucrose.
When a mixture is more acidic than the standard control solution, the pH of the sample was adjusted with NaOH to achieve a range of pH±0.2 with respect to the pH of the standard solution before use.
The sensory evaluation for the improvement of the body taste was performed with n=12 on the basis of the following criteria: a control (obtained with adding distilled water only and without adding the sample) was defined as 0, and by using the control as a standard, the following were defined: weak: −2 points; slightly weak: −1 point; slightly strong: 1 point, and strong: 2 points. A higher score than 0 means that the sample improves the body taste.
Alternatively, the sensory evaluation for the improvement of the bitterness was performed with n=12 on the basis of the following criteria: a control (obtained with adding distilled water only and without adding the sample) was defined as 0, and by using the control as a standard, the following were defined: weak: −2 points; slightly weak: −1 point; slightly strong: 1 point, and strong: 2 points. […]

Where [3] appears, read: APM 0.0125 + sucralose 0.0021 + Ace-K 0.0063 g/dl (2:1:1), sample 0.05 g/dl.
Setting [4] is: APM 0.0125 g/dl + sucralose 0.0042 g/dl (1:1), sample 0.05 g/dl.
[5] abbreviates: APM 0.02 g/dl + Ace-K 0.005 g/dl (8:2), sample 0.05 g/dl.
Where [6] appears, read: sucralose 0.0058 g/dl + Ace-K 0.0075 g/dl (7:3), sample 0.05 g/dl.
Setting [7] is: APM 0.0125 + sucralose 0.0021 + Ace-K 0.0063 g/dl (2:1:1), sample 0.001 g/dl.
Where [8] appears, read: APM 0.0125 + sucralose 0.0021 + Ace-K 0.0063 g/dl (2:1:1), sample 0.01 g/dl.
Where [9] appears, read: APM 0.0125 g/dl + sucralose 0.0042 g/dl (1:1), sample 0.001 g/dl.
The mark [10] stands for this setting: APM 0.0125 g/dl + sucralose 0.0042 g/dl (1:1), sample 0.01 g/dl.
Where [11] appears, read: APM 0.02 g/dl + Ace-K 0.005 g/dl (8:2), sample 0.001 g/dl.
[12] abbreviates: APM 0.02 g/dl + Ace-K 0.005 g/dl (8:2), sample 0.01 g/dl.
Setting [13] is: sucralose 0.0058 g/dl + Ace-K 0.0075 g/dl (7:3), sample 0.001 g/dl.
The mark [14] stands for this setting: sucralose 0.0058 g/dl + Ace-K 0.0075 g/dl (7:3), sample 0.01 g/dl.

*1 amine or outer side, *2 acyl side, *3 side chain or, on linkers, in order; H or OH if unused. Where no end group is shown, it is not given here. [ ]: non-standard residue; d: D form. γGlu = O=C(O)[C@H](CCC(=O)[*:2])N[*:1]; Abu = CC[C@H](N)C(=O)O

As to `N[C@@H](CCC(=O)N[C@@H](CS)C(=O)NCC(=O)O)C(=O)O` [γ-Glu-Cys-Gly, reference compound], the “Kokumi intensity, aftertaste” value in assay [1] (sample 0.1 g/dl, n=3) is recorded as 3.0 points; in assay [1] (sample 0.1 g/dl, n=5) it was 3.0 points; in assay [1] (sample 0.1 g/dl, n=12), 3.0 points. For the same compound, the “Kokumi intensity, initial and middle taste” value amounted to 3.0 points in assay [1] (sample 0.1 g/dl, n=3); 3.0 points in assay [1] (sample 0.1 g/dl, n=5); 3.0 points in assay [1] (sample 0.1 g/dl, n=12). Besides, in assay [1] (sample 0.1 g/dl, n=3), the Evaluation comments entry was “Thickness,”. For the same compound, the Taste profile result in assay [1] (sample 0.1 g/dl, n=5) is “Thickness,”; in assay [1] (sample 0.1 g/dl, n=12), “Thickness,”; in assay [2] (APM:Ace-K = 8:2, sample 0.05 g/dl), “Sweet taste is wholly enhanced”; in assay [2] (APM:sucralose = 1:1, sample 0.05 g/dl), “Sweet taste is enhanced in middle taste”; in assay [2] (APM:sucralose:Ace-K = 2:1:1, sample 0.05 g/dl), “Sweet taste is wholly enhanced”; in assay [2] (sucralose:Ace-K = 7:3, sample 0.05 g/dl), “Sweet taste is enhanced in middle taste”. Besides, the Bitterness in assay [2] (setting [3]), in assay [2] (setting [4]), in assay [2] (setting [5]) and in assay [2] (setting [6]) was −0.3 points in each case. Also, the Body taste in assay [2] (setting [3]) worked out at 1.2 points; in assay [2] (setting [4]), 1.0 points; in assay [2] (setting [5]), 1.0 points; in assay [2] (setting [6]) it was 1.0 points.

For the compound [γGlu]-[Abu]-Gly, in assay [1] (sample 0.01 g/dl, n=12), the “Kokumi intensity, aftertaste” value turned out to be 2.0 points. In addition, the “Kokumi intensity, initial and middle taste” value in assay [1] (sample 0.01 g/dl, n=12) is reported as 3.0 points. The Bitterness in assay [2] (setting [7]) is recorded as −0.4 points; in assay [2] (setting [8]), −0.8 points; in assay [2] (setting [9]), −0.1 points; in assay [2] (setting [10]), −0.1 points; in assay [2] (setting [11]), −0.3 points; in assay [2] (setting [12]) it was −0.7 points. Also, the Bitterness is −0.3 points in assay [2] (setting [13]) and −0.7 points in assay [2] (setting [14]). Also, the Body taste was 0.6 points in assay [2] (setting [7]); 1.3 points in assay [2] (setting [8]); 0.6 points in assay [2] (setting [9]); 1.3 points in assay [2] (setting [10]); 0.6 points in assay [2] (setting [11]); 1.3 points in assay [2] (setting [12]). Besides, the Body taste amounted to 0.5 points in assay [2] (setting [13]) and 1.1 points in assay [2] (setting [14]). Also, the Taste profile entry in assay [2] (APM:sucralose = 1:1, sample 0.001 g/dl) is given as “Harmony is present. Sweet taste is enhanced”; in assay [2] (APM:sucralose = 1:1, sample 0.01 g/dl), “Harmony is present. Sweet taste is enhanced”.

For the origin of these results see patent publication US9420813B2, “Sweetener” (AJINOMOTO CO., INC., priority 2007, dated 2016).
